Test results as given in US12617835B2, “Chimeric autoantibody receptor (CAAR) that binds autoantibodies targeting the central nervous system in neurological autoimmune disease” (Deutsches Zentrum für Neurodegenerative Erkrankungen e. V. …, priority 2019, dated 2026).

Columns and labels:
[1] = system: K562 cells expressing NR1-reactive antibodies on their surface; test: Interferon-γ release on co-culture with K562 cells expressing surface NR1-reactive antibodies; type: cell-based; details: 50,000 T-cells co-cultured 1:1 with K562 cells, 48 hours
Description: 50,000 CAAR T-cells were co-cultured 1:1 with K562 cells expressing NR1-reactive or control antibodies on their surface for 48 hours.

[2] = system: K562 cells expressing surface NR1-reactive antibodies; test: Cell lysis of K562 target cells (7-AAD, flow cytometry); type: cell-based; details: E:T ratios 30:1 to 1:1, 4 hours
Description: For quantification of cell killing, target cells were incubated with CAAR T-cells at different Effector: Target (E:T) ratios ranging from 30:1 to 1:1 for 4 hours. Dead cells were stained by 7-AAD and analyzed by flow cytometry.
Target K562 cells were incubated with CAAR T-cells at different Effector:Target (E:T) ratios ranging from 30:1 to 1:1.

[3] = system: Nalm6 cells with surface-presentation of NR1 autoantibody #003-102; test: In vivo bioluminescence imaging of Nalm6 burden in mice; details: bioluminescence on day 9 (4 days post-treatment); preliminary data
Description: Nalm6 cells with surface-presentation of NR1 autoantibody and expressing a Luciferase enzyme (e.g. firefly-Luciferase) tagged with a fluorescent protein (e.g. GFP), are injected on day 1 into mice. On day 5, therapeutic CAAR-T cells expressing a CAAR of the present invention or control T cells without CAAR expression are injected. Bioluminescence imaging is conducted regularly, for example at time points 1, 5, 8, 12, 15, 19 and 22 days, to assess therapeutic effect against the Nalm6 cells. […]
In order to show therapeutic efficacy in an animal model in vivo, Nalm6 cells with surface-presentation of NR1 autoantibody #003-102 or #008-218 and expressing the Luciferase enzyme firefly-Luciferase (ffluc) tagged with a fluorescent protein (GFP, green fluorescent protein), were injected on day 1 into 16 mice. […] As a read-out of the assay, animal survival, target cell reduction (via in vivo bioluminescence measurements) and serum antibody levels are determined. […]
The potential readouts for the assay relate to bioluminescence imaging quantification (for the detection of in vivo killing), quantification of anti-NR1 serum levels by ELISA (for the detection of reduction of circulating antibodies), and postmortem analysis of treated animals (in order to determine off-target toxicity). […]

[4] = system: Nalm6 target cells expressing NR1-reactive antibody #003-102; test: Luciferase-assay of specific lysis of Nalm6 target cells, with or without Dasatinib; type: cell-based
Description: For quantification of cell killing, Nalm6 target cells expressing NR1-reactive antibody #003-102 were incubated with CAAR T-cells at different Effector:Target (E:T) ratios ranging from 1:2 to 8:1 for 18 hours. Percentage of specific lysis was determined by reduction of bioluminescence in a Luciferase-assay.
Results are depicted in FIG. 10.

“ATD-S1-S2-CAAR: T cells transduced with CAAR: CD8 leader/NMDAR ATD-S1-Linker1-S2/Linker2/CD8a TM/CD137 co-stim/CD3z signaling” was tested, and the “release of interferon-γ” value [1] was “massively released”, the “killing of K562 cells expressing surface NR1-reactive antibodies” value [2] was “dose-dependent killing” and the “animals with drastic reduction of Nalm6 burden” value [3] was 5/6. For the same substance, the “inactivation of CAAR T cells by Dasatinib” value ([4]; Dasatinib (safety strategy)) was “temporarily halted” and the “killing of Nalm6 target cells” value ([4]; E:T ratios 1:2 to 8:1, 18 hours) was “dose-dependent killing”.
